Experiment [1] concerns Salmonella typhimulium TA1535/pSK1002. It counts as cell-based. The method, then: An antimutagenic activity was determined according to a method for detecting an environmental mutagen by the umu test, which can determine mutagenicity with reference to the β-galactosidase activity (Mutation Research, 147: 219 (1985)). Briefly, 25 μl of mutagen [mitomycin C (a DNA crosslinker) at 10 μg/ml or 4-nitroquinoline-1-oxide (NQO, a DNA methylating agent) at 7 μg/ml] was added to 50 μl of DGE solution at a varying concentration (1.0, 5.0, 10 or 15 mM). A culture of Salmonella typhimulium TA1535/pSK1002 in TGA medium at OD600 of 0.12 was added to the mixture to make the final volume to 1.5 ml. The mixture was then incubated at 37° C. for 2 hours with shaking. 200 μl of the culture was used to measure the β-galactosidase activity according to the method of Miller [Experiments in molecular genetics, pp. 352 (1972)].

The subject of experiment [2] is Mouse melanoma cell B16BL6. In words: Melanogenesis inhibition test. The experiment is classed as cell-based. The following applies: B16BL6, absorbance at 400 nm. The method, then:
Mouse melanoma cell B16BL6 suspended in RPMI 1640 medium containing 10% fetal bovine serum was dispensed into a 6-well plate at 5×10^4 cells/well/2 ml medium and the plate was incubated at 37° C. On the 2nd day, 100 μl of a DGE solution (2 mg/ml to 0.2 mg/ml) was added thereto. On the 7th day, the medium was exchanged and, at the same time, 100 μl of the DGE solution (2 mg/ml to 0.2 mg/ml) was added thereto. On the 8th day, the cells were harvested. After DNA, RNA and protein were digested, the absorbance at 400 nm was measured to determine an activity of inhibiting melanogenesis.
Briefly, after removing the medium by aspiration, 0.3 ml of 0.25% trypsin dissolved in 20 mM EDTA solution was added to each well and the plate was incubated at 37° C. for 10 minutes. 2 ml of fresh medium was then added to the well and the cells were suspended. The suspension was transferred to a tube. After the medium was removed by centrifugation, the cells were suspended in 2 ml of PBS and centrifuged again. After the supernatant was removed, 30 μl of 50 mM sodium acetate buffer (pH 5.0) containing 5 mM manganese chloride and 1 μl of 70,000 U/ml DNase I (Takara Shuzo) were added to the cells. The mixture was mixed thoroughly and then incubated at 37° C. for 2 hours to digest DNA. 1 μl of 10 mg/ml ribonuclease A (Sigma) was then added to the mixture and the resultant mixture was incubated at 50° C. for 1 hour to digest RNA. Finally, 100 mM Tris-hydrochloride buffer (pH 7.8) containing 100 μg/ml proteinase K (Sigma), 0.1% Triton X and 10 mM EDTA was added thereto to make the total volume to 200 μl for 2×10^6 cells. After the mixture was incubated at 37° C. for 16 hours, the absorbance at 400 nm was measured.

For experiment [3], the system named is α-glucosidase from rat small intestine mucous membrane. In words: α-Glucosidase inhibition test (crude enzyme from rat small intestine). The experiment is classed as biochemical. The following applies: for relative activity: control without DGE = 100%. On the procedure:
(2) A crude enzyme preparation of α-glucosidase from rat small intestine mucous membrane [prepared according to the method as described in Arne Dahlqvist, Anal. Biochem., 7:18-25 (1964)] was used to measure the activity of inhibiting α-glucosidase of DGE as follows.
For the enzymatic reaction, 80 μl of a solution of sucrose, maltose, treharose or soluble starch as a substrate in 10 mM phosphate buffer (pH 7.0) buffer at a final concentration of 100 mM (0.5% for soluble starch) was added to 10 μl of a test sample solution appropriately diluted with the same buffer. 10 μl of the crude enzyme solution prepared from rat small intestine was added thereto. The mixture was reacted at 37° C. for 20 minutes.
The enzymatic reaction was assessed by adding 3 ml of a reagent for glucose measurement (Wako Pure Chemical Industries) to the reaction mixture, reacting at 37° C. for 5 minutes and then measuring the absorbance at 505 nm as the glucose content in the mixture.
The inhibitory activity of DGE on the digestion of each substrate by α-glycosidase was measured using DGE at four different concentrations according to the above-mentioned method. The activity of inhibiting α-glycosidase was expressed as a relative activity (%) defining the activity of the control without DGE as 100%.

Read-outs that look alike come from different tables or passages of the source.

On to `O=C1C=CC(CO)OC1O` [DGE, L-glycero-1,5-epoxy-1αβ,6-dihydroxy-cis-hex-3-en-2-one], for which the antimutagenic activity came to 36% in experiment [1] (against NQO, DGE final concentration 0.5 mM) and 37% in experiment [1] (against mitomycin C, DGE final concentration 0.5 mM). In addition, the β-Galactosidase activity in experiment [1] (mutagen Mitomycin C, DGE final concentration 0.03 mM, without DGE 611) turned out to be 590; in experiment [1] (mutagen Mitomycin C, DGE final concentration 0.17 mM, without DGE 611), 570; in experiment [1] (mutagen Mitomycin C, DGE final concentration 0.33 mM, without DGE 611), 451; in experiment [1] (mutagen Mitomycin C, DGE final concentration 0.5 mM, without DGE 611), 383; in experiment [1] (mutagen NQO, DGE final concentration 0.03 mM, without DGE 1437), 1376; in experiment [1] (mutagen NQO, DGE final concentration 0.17 mM, without DGE 1437), 1212. Also, the β-Galactosidase activity in experiment [1] (mutagen NQO, DGE final concentration 0.33 mM, without DGE 1437) stood at 1038; in experiment [1] (mutagen NQO, DGE final concentration 0.5 mM, without DGE 1437), 926. Besides, the “activity of inhibiting melanogenesis” value in experiment [2] is given as “an activity of inhibiting melanogenesis was observed”. The relative activity in experiment [3] (substrate Maltose, DGE 0.2 mM) is 96%; in experiment [3] (substrate Maltose, DGE 0.5 mM), 97%; in experiment [3] (substrate Maltose, DGE 1.0 mM), 100%; in experiment [3] (substrate Maltose, DGE 2.0 mM), 96%; in experiment [3] (substrate Soluble starch, DGE 0.2 mM), 100%; in experiment [3] (substrate Soluble starch, DGE 0.5 mM), 95%. Moreover, the relative activity in experiment [3] (substrate Soluble starch, DGE 1.0 mM) came out at 91%; in experiment [3] (substrate Soluble starch, DGE 2.0 mM), 92%; in experiment [3] (substrate Treharose, DGE 0.2 mM), 98%; in experiment [3] (substrate Treharose, DGE 0.5 mM), 96%; in experiment [3] (substrate Treharose, DGE 1.0 mM), 99%; in experiment [3] (substrate Treharose, DGE 2.0 mM) it was 100%.

As to `O=C1C=CC(CO)OC1O` [κ-DGE, D-glycero-1,5-epoxy-1αβ,6-dihydroxy-cis-hex-3-en-2-one], the antimutagenic activity result in experiment [1] is on record as “also exhibited similar activities”. In addition, the “activity of inhibiting melanogenesis” value in experiment [2] is on record as “also exhibited similar activities”. In experiment [3], the “activities of inhibiting α-glycosidase” value is “also exhibited similar activities of inhibiting α-glycosidase”.

Regarding “5-L-glutathion-S-yl-2-hydroxy-3,7-dioxabicyclo[2.2.2]octan-1-ol [DGE-GSH]”, the antimutagenic activity entry in experiment [1] is “also exhibited similar activities”. In addition, the “activity of inhibiting melanogenesis” value in experiment [2] is given as “also exhibited similar activities”. Moreover, the “activities of inhibiting α-glycosidase” value in experiment [3] was “also exhibited similar activities of inhibiting α-glycosidase”.

For the origin of these results see US6531148B1, “Therapeutic agents” (Takara Shuzo Co., Ltd., priority 1998, dated 2003).
